From article PMC4877593, “Design and Synthesis of Potent in Vitro and in Vivo Anticancer Agents Based on 1-(3′,4′,5′-Trimethoxyphenyl)-2-Aryl-1H-Imidazole” (Scientific Reports, 2016)
Like-named read-outs stand apart in the source and are kept apart here.

Legend:
Jurkat = assay: In vitro antiproliferative activity (MTT), Jurkat; type: cell-based; conditions: Homo sapiens, tumor cell proliferation, 72 h, mean ± SE
Experimental: (§1) Human T-cell leukemia (CCRF-CEM and Jurkat) and human B-cell leukemia (SEM) cells were grown in RPMI-1640 medium (Gibco, Milano, Italy). Breast adenocarcinoma (MCF7), human cervix carcinoma (HeLa), and human colon adenocarcinoma (HT-29) cells were grown in DMEM medium (Gibco, Milano, Italy), all supplemented with 115 units/mL penicillin G (Gibco, Milano, Italy), 115 μg/mL streptomycin (Invitrogen, Milano, Italy), and 10% fetal bovine serum (Invitrogen, Milano, Italy). Stock solutions (10 mM) of the different compounds were obtained by dissolving them in dimethyl sulfoxide (DMSO). Individual wells of a 96-well tissue culture microtiter plate were inoculated with 100 μL of complete medium containing 8 × 10^3 cells. The plates were incubated at 37 °C in a humidified 5% CO2 incubator for 18 h prior to the experiments. After medium removal, 100 μL of fresh medium containing the test compound at different concentrations was added to each well in triplicate and incubated at 37 °C for 72 h. The percentage of DMSO in the medium never exceeded 0.25%. This was also the maximum DMSO concentration in all cell-based assays described below. […] Different concentrations of the test compounds were added, and viability was determined 72 h later by the MTT test. For cytotoxicity evaluations in resting PBL cultures, non-adherent cells were resuspended (5 × 10^5 cells/mL) and treated for 72 h with the test compounds, as described above.

MCF-7 = assay: In vitro antiproliferative activity (MTT), MCF-7; type: cell-based; conditions: Homo sapiens, MCF7, tumor cell proliferation, 72 h, mean ± SE
Experimental: as §1

HL-60 = assay: In vitro antiproliferative activity (MTT), HL-60; type: cell-based; conditions: Homo sapiens, tumor cell proliferation, 72 h, mean ± SE
bovine brain tubulin = assay: Inhibition of tubulin polymerization (turbidimetry); type: biochemical
Experimental: To evaluate the effect of the compounds on tubulin assembly in vitro[22], varying concentrations of compounds were preincubated with 10 μM bovine brain tubulin in glutamate buffer at 30 °C and then cooled to 0 °C. After addition of 0.4 mM GTP (final concentration), the mixtures were transferred to 0 °C cuvettes in a recording spectrophotometer equipped with an electronic temperature controller and warmed to 30 °C. Tubulin assembly was followed turbidimetrically at 350 nm. […] The ability of the test compounds to inhibit colchicine binding to tubulin was measured as described, except that the reaction mixtures contained 1 μM tubulin, 5 μM [^3H]colchicine and 1 or 5 μM test compound.

[1] = test system: HCT-15 (human colon adenocarcinoma); conditions: cited from earlier work
HeLa = assay: In vitro antiproliferative activity (MTT), HeLa; type: cell-based; conditions: Homo sapiens, tumor cell proliferation, 72 h, mean ± SE
Experimental: as §1

RS4;11 = assay: In vitro antiproliferative activity (MTT), RS4;11; type: cell-based; conditions: Homo sapiens, tumor cell proliferation, 72 h, mean ± SE
HT-29 = assay: In vitro antiproliferative activity (MTT), HT-29; type: cell-based; conditions: Homo sapiens, tumor cell proliferation, 72 h, mean ± SE
Experimental: as §1

tubulin = assay: Inhibition of [3H]colchicine binding to tubulin; set-up: species or system bovine; conditions: tubulin 1 μM, [3H]colchicine 5 μM
Experimental: The ability of the test compounds to inhibit colchicine binding to tubulin was measured as described[22], except that the reaction mixtures contained 1 μM tubulin, 5 μM [^3H]colchicine and 1 or 5 μM test compound.

[2] = test system: panel of seven human tumor cell lines; assay: Antiproliferative activity across the panel of seven human tumor cell lines; type: cell-based
Experimental: as §1

[3] = test system: NCI-H460 (human lung large cell carcinoma); conditions: cited from earlier work
A549 = assay: In vitro antiproliferative activity (MTT), A549; type: cell-based; conditions: Homo sapiens, tumor cell proliferation, 72 h, mean ± SE
Experimental: as §1

IC50 (Jurkat): 2.5 ± 0.9 nM
IC50 (MCF-7): 4.6 ± 2.3 nM
IC50 (HL-60): 24 ± 12.1 nM
IC50 (bovine brain tubulin; repeated beside the calculated energies, read-out: inhibition of tubulin polymerization IC50 (Table 4)): 1800 nM
IC50 (bovine brain tubulin; tubulin at 10 μM, 20 min incubation, read-out: Tubulin assembly IC50 ± S.D.): 1800 nM
IC50 (HeLa): 2 ± 0.14 nM
IC50 (RS4;11): 62.3 ± 10.3 nM
IC50 (HT-29): 3.6 ± 0.9 nM
Colchicine binding % inhibition ± S.D., 5 μM drug (tubulin): 65 ± 4%
IC50 ([2]; average over the seven cell lines, read-out: average IC50 values): 15 nM
IC50 ([2]; range over seven cancer cell lines, read-out: IC50 values in the seven cell lines (range)): 2 to 62.3 nM
IC50 (A549): 7.1 ± 1.5 nM
SMILES: COc1cc(-n2ccnc2-c2ccc3ccccc3c2)cc(OC)c1OC [Compound 3c, reference compound]
IC50 [1]: 51 nM
IC50 [3]: 57 nM
